Laboratory results reported in publication PMC6084407, “Structural Basis of Phosphatidic Acid Sensing by APH in Apicomplexan Parasites” (Structure(London, England:1993), 2018).

Key:
PfAPH106-235 [1] = molecular target: T1, PfAPH106-235 (Plasmodium falciparum, UniProt Q8I1U2); assay: 1D 1H NMR LUV titration; assay type: binding
T1 construct: gene PF3D7_0414600; C-terminal PH domain, residues 106-235; codon-optimised gene, pNIC28a-Bsa4, E. coli BL21(DE3); N-terminal His6 tag cut by TEV

PfAPH106-235 [2] = molecular target: T1, PfAPH106-235; assay: 1H-15N HSQC NMR titration; assay type: binding
Description: 1H-15N HSQC NMR titration on PfAPH106-235 | binding to the short-chain PA is in the fast exchange regime on the NMR timescale

TgAPH99-229 = molecular target: T2, TgAPH99-229 (Toxoplasma gondii, UniProt A0A125YY72); assay: 1H-15N HSQC NMR titration; assay type: binding; conditions: free short-chain lipid; 250 μM protein; buffer pH 7
T2 construct: gene TGME49_249970; C-terminal PH domain, residues 99-229; codon-optimised gene, pNIC28a-Bsa4, E. coli BL21(DE3); N-terminal His6 tag cut by TEV

PfAPH106-235 [3] = molecular target: T3, PfAPH106-235 (Plasmodium falciparum, UniProt Q8I1U2, F144A/I143A); assay: biochemical
T3 construct: gene PF3D7_0414600

PfAPH106-235 [4] = molecular target: T4, PfAPH106-235 (Plasmodium falciparum, UniProt Q8I1U2, K138A/K140A); assay: biochemical
T4 construct: gene PF3D7_0414600

PfAPH106-235 [5] = molecular target: T5, PfAPH106-235 (Plasmodium falciparum, UniProt Q8I1U2, K138A); assay: biochemical
T5 construct: gene PF3D7_0414600

PfAPH106-235 [6] = molecular target: T6, PfAPH106-235 (Plasmodium falciparum, UniProt Q8I1U2, H145A); assay: biochemical
T6 construct: gene PF3D7_0414600

PfAPH106-235 [7] = molecular target: T7, PfAPH106-235 (Plasmodium falciparum, UniProt Q8I1U2, K140A); assay: biochemical
T7 construct: gene PF3D7_0414600
T7 sequence (Q8I1U2 106-235 K140A): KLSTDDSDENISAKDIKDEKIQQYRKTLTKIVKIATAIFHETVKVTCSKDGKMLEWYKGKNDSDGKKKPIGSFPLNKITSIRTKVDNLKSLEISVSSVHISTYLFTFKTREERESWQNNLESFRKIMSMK

T1 sequence (Q8I1U2 entry or part of it): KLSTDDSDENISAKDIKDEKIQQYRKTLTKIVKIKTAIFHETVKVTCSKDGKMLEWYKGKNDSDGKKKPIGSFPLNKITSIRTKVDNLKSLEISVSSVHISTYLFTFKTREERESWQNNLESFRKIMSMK
T4 sequence (Q8I1U2 106-235 K138A/K140A): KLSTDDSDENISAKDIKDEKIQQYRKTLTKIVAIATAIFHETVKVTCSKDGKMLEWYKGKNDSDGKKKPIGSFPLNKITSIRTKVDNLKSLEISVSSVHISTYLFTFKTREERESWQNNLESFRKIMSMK
T5 sequence (Q8I1U2 106-235 K138A): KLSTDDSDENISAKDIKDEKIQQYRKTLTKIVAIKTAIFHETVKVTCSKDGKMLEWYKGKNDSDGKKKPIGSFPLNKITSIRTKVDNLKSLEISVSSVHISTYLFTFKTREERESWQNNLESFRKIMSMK
T3 sequence (Q8I1U2 106-235 F144A/I143A): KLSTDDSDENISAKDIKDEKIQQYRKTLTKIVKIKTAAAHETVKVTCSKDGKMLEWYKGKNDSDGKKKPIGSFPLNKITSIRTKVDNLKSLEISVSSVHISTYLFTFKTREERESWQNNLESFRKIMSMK
T2 sequence (A0A125YY72 entry or part of it): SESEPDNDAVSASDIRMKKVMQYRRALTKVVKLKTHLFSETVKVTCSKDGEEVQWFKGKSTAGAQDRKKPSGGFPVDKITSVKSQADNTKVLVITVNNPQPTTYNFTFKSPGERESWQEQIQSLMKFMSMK
T6 sequence (Q8I1U2 106-235 H145A): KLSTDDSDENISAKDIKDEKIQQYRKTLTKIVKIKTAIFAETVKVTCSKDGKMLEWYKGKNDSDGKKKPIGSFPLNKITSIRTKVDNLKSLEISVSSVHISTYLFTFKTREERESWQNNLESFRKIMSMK

Molecule `CCCCCCCC/C=C\CCCCCCCC(=O)O[C@H](COC(=O)CCCCCCCCCCCCCCC)COP(=O)([O-])OCC[N+](C)(C)C` [POPC, 1-palmitoyl-2-oleoyl-sn-glycero-3-phosphocholine] has a Kd (PfAPH106-235 [1]) of 1070 ± 33 µM.
With `CCCCCC(=O)OC[C@H](COP(=O)(O)O)OC(=O)CCCCC` [short-chain PA, 1,2-dihexanoyl-sn-glycero-3-phosphate] the Kd (PfAPH106-235 [2]) was over 50 µM and the “1H-15N HSQC NMR titration” value (TgAPH99-229) was “Binding experiments with recombinant APHs and short-chain PA enabled mapping”.
`CCCCCCCC/C=C\CCCCCCCC(=O)O[C@H](COC(=O)CCCCCCCCCCCCCCC)COP(=O)(O)O` [POPA, 1-palmitoyl-2-oleoyl-sn-glycero-3-phosphate] showed a Kd (PfAPH106-235 [3]) of 1.32 mM, a Kd (PfAPH106-235 [1]) of 275 ± 13 µM and a Kd (PfAPH106-235 [4]) of 1.49 mM. The Kd (PfAPH106-235 [5]) was 959 ± 35 µM, the Kd (PfAPH106-235 [6]) was 499 ± 9 µM and the Kd (PfAPH106-235 [7]) was 604 ± 29 µM.
`CCCCCCCC/C=C\CCCCCCCC(=O)O[C@H](COC(=O)CCCCCCCCCCCCCCC)COP(=O)(O)OC[C@H](N)C(=O)O` [POPS, 1-palmitoyl-2-oleoyl-sn-glycero-3-phospho-L-serine] showed a Kd (PfAPH106-235 [1]) of 850 ± 13 µM.
